From patent publication US20250369032A1 (priority 2023, published 2025)
“And” between values parts separate entries of the source, which are not always exact repeats. Equal values may be shown once. Read-outs that look alike come from different tables or passages of the source.

Key:
alkaline phosphatase [1] = biological target: T1, alkaline phosphatase (Bos taurus, UniProt P19111); assay type: biochemical; parameters: purchased Sigma Aldrich, St. Louis, MO P0114 (original source); P7640 (second source, 'new AP' condition only)
skin = conditions: cited from earlier work
[2] = test system: endogenous skin phosphatase; assay type: biochemical, porcine; conditions: optical density compared to the naïve condition
Procedure: Our next studies involved applying the test substance (500 μL) directly to the epidermis side of previously frozen porcine skin (Spear Products, Coopersburg, PA) that is placed in a holder that only exposes the epidermis side for 30 minutes, adding phosphate buffered saline (PBS) with added sodium azide (metabolic inhibitor that ensure no viable tissue), then aliquoting into cuvettes to read at an optical density of 300 nm. […] So, at the end of the initial studies described above, almost out of frustration, we tried to probe for released phosphatase activity using p-Nitrophenyl phosphate disodium salt (PNPP; Sigma Aldrich, St. Louis, MO) substrate solution to detect any presence of phosphatase.
• 1. Thaw 2 pieces of frozen porcine skin • a. Punch out as many skin discs and mount in holders • 2. Label cuvettes (3 for each chemical)
• 1. Add 500 μL of test chemical to holder; incubate at room temperate for 30 minutes • 2. After 30 minutes, add 2 mL of PBS-Azide to both the holder containing the test chemical; forcefully pipette and re-pipette 10 times • 3. From the holder, aliquot 400 μL into 3 cuvettes; forcefully pipette and re-pipette 3 times before dispensing into cuvettes
Skin corrosion by GHS Category 1 dermal corrosive chemicals results in the disintegration of the epidermis into the dermis.

alkaline phosphatase [3] = biological target: T1, alkaline phosphatase; assay type: biochemical; parameters: purchased Sigma Aldrich, St. Louis, MO P0114 (original source); P7640 (second source, 'new AP' condition only); conditions: original alkaline phosphatase 1:100 dilution
Source text: Our next study focused on an in vitro method of detecting the potential of dermal corrosives to inhibit nonspecific phosphatases that may be released from the skin. We decided to test pure […] instead of relying on endogenous skin phosphatase. Alkaline phosphatase (Sigma Aldrich, St. Louis, MO) was purchased and suspended to make the reaction reagent (10,000 units). […] We note that the ratio used was 0.1 g/ml or 10% chemical-which is far in excess of any pharmaceutical applications. We further note that pharmaceutical enzyme inhibition tests, studies an use involve highly specific active site binding and these assays are conducted at ratios of micrograms-femtograms per ml. These studies are done at these ranges because these are the realistic concentrations for drug applications and therapeutics. […] So when a 50 Kg human consumes the tables, the tissues will be exposed at a 5 mg/50 kg=0.1 mg/kg=0.0000001 g/ml.
Next two quantitative methods were evaluated: 1) using the discs parts from our OptiSafe™ test method and 2) directly into the 24-well plate.
• 1. Alkaline phosphatase reaction reagent • a. Take 1 vial of AP, add 1 mL of PBS, mix by pipette/re-pipette 10 times • b. To a 50 mL conical tube, add 1 mL of the AP solution prepared above and 40 mL of PBS • 2. Prepare two 24-well plates (1 with discs, 1 without discs) • 3. […] Aliquot 200 μL PNPP and PBS
• 1. Plate 1 (No Discs) • a. Add 1.25 mL from the prepared PBS-AP conical tube to each well (11 wells) • b. Add 100 μL of the test material to the well, mix with the same pipette tip, dispose and repeat for the rest of the test materials • c. Wrap the plate in saran wrap and place into the container • 2. Plate 2 (Discs) • a. Configure the 11 discs in the plate so the plate cover is stable • b. Add 1.25 mL from the prepared PBS-AP conical tube to each well (11 wells) • c. Add 100 μL of the test material to the center of the disc and repeat for the rest of the test materials • d. Put the plate cover on and place into the container • 3. […] Incubate for 1 hour
For the new study, the alkaline phosphatase was suspended in phosphate buffered saline (PBS) to make the reaction reagent. Then, 100 μL of the test chemical is added directly into the corresponding wells on a 24-well plate with 1.25 mL of alkaline phosphatase reaction reagent already aliquoted.
• 1. Alkaline phosphatase reaction reagent • a. Take 1 vial of AP, add 1 mL of PBS, mix by pipette/re-pipette 10 times • b. To a 50 mL conical tube, add 1 mL of the AP solution prepared above and 40 mL of PBS • 2. Prepare two 24-well plates • 3. […] Aliquot with 200 μL PNPP and PBS • 4. Prepare glass vials Repeat Procedure from Jan. […] 24-well plate • a. Add 1.25 mL from the prepared PBS-AP conical tube to each well (11 wells) • b. Add 100 μL of the test material to the well, mix with the same pipette tip, dispose and repeat for the rest of the test materials • c. Wrap the plate in saran wrap and place into the container • 2. […] To the prepared 96-well plate with 200 μL PNPP or PBS, add 20 μL from the 24-well plate • 4. Incubate for 1 hour • 5.
• 1. 24-well plate • a. Add 1.25 mL from the prepared PBS-AP conical tube to each well (11 wells) • b. Add 100 μL of the test material to the well, mix with the same pipette tip, dispose and repeat for the rest of the test materials • c. After 10 minutes, mix each well • 2.

porcine skin = conditions: R 1 and 2
Procedure: Our initial studies involved using fresh and frozen porcine skin “buttons”. These buttons were punched out of porcine skin (Spear Products, Cooopersburg, PA) using a […] biopsy punch tool. Three different kinds of skin buttons were prepared from fresh porcine skin, frozen porcine skin, and frozen porcine skin with the fatty layer removed. […] The next day, the tubes were taken out and vortexed and 500 μL of the solution was aliquoted into cuvettes to read at three different optical density wavelengths (OD190, OD290, OD300) to evaluate the best response.
• 1. Thaw 2 pieces of frozen porcine skin • 2. Punch out buttons: 24 buttons in each tube filled with 40 mL PBS-Azide
• 1. Plate layout for dosing:
• 1. Dose each tissue with 140 μL of test chemical • 2.
• 1. Take out of incubator and vortex pulse 3× • 2. Aliquot 500 μL to cuvette and read results at OD190, OD290, and OD300
There were three readings done at an optical density of 190, 290, and 300 nm to evaluate the best response. […] To address the variable exposure conditions, our next studies involved placing a larger porcine skin section into a holder that exposes only the epidermis side with no potential for test chemical exposure from the backside or through the sides.

[4] = 1:100, 20 μL into 180 μL, 0.5 mL microcentrifuge tubes, 4 hours RT, PNPP 60 min, 405 nm
[5] = average of R1-R3, 1:100, 20 μL into 180 μL, 4 hours RT, PNPP 60 min, 405 nm
[6] = skin, chemical lists of the protocols
[7] = fresh porcine skin, 140 μL, 18 hours at 37° C. in PBS-Azide
[8] = frozen porcine skin with fat layer removed

T1 sequence (P19111 20-506): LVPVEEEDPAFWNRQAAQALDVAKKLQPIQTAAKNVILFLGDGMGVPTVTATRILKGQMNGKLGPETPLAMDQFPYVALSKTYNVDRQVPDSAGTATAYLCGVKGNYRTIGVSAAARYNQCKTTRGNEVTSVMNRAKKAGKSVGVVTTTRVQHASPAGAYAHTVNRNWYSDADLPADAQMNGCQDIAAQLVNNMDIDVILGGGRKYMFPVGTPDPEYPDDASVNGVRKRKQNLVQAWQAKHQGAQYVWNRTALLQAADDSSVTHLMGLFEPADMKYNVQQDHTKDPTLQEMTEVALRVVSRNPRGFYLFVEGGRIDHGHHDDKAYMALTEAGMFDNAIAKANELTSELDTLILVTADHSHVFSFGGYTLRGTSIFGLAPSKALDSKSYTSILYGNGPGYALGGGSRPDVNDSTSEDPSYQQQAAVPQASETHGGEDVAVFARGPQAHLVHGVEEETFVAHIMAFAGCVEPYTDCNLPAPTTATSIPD

| SMILES | A1-Results R1 (alkaline phosphatase [1]; [4]) | A1-Results R3 (alkaline phosphatase [1]; [4]) | A1-Results AVG (alkaline phosphatase [1]; [5]) | A1-Results AVG (alkaline phosphatase [1]) | A1-Results R1 (alkaline phosphatase [1]) | A1-Results R3 (alkaline phosphatase [1]) | other results |
| --- | --- | --- | --- | --- | --- | --- | --- |
| CSc1ccc(C=O)cc1 | 3.354 | 3.238 | 3.344 | – | – | – | – |
| CC/C=C\CC1=C(C)CCC1=O | – | – | – | 3.502 | 3.502 | 3.502 | – |
| CC(C)=CCC/C(C)=C/CO | 3.406 | 3.502 | 3.470 | – | – | – | in vivo GHS (skin; [6]): Cat. 2 (Category 2 (irritation; mean score of ≥2.3 and ≤4.0 for erythema/eschar or for oedema in at least 2 of 3 tested animals at 24, 48, and 72 hours or inflammation that persists to the end of 14 days)) |
| CCCCCBr [1-Bromopentane] | 3.428 | 3.056 | 3.261 | – | – | – | in vivo GHS (skin; [6]): Cat. 2 (Category 2 (irritation; mean score of ≥2.3 and ≤4.0 for erythema/eschar or for oedema in at least 2 of 3 tested animals at 24, 48, and 72 hours or inflammation that persists to the end of 14 days)) |
| CCCCCCCCCCO [1-Decanol] | – | – | – | 3.449 | 3.502 | 3.380 | – |
| CC(C)(O)CCc1ccccc1 [2-Methyl-4-phenyl-2-butanol] | – | – | – | – | – | – | percent of phosphatase measured (first reading) [2]: 98.6%; percent of phosphatase measured (second reading) [2]: 100.0%; percent of phosphatase measured, average [2]: 99.3%; Corrosive (skin; Table 2): No |
| CC(C)(C)c1ccccc1O [2-tert-Butylphenol] | 0.437 | 0.607 | 0.524 | – | – | – | in vivo GHS (skin; rabbit, in vivo): Cat. 1B/1C; prediction based on OD405 values (FIG. 6D) (alkaline phosphatase [3]): correctly predicted; prediction based on OD405 values (FIG. 6B) (alkaline phosphatase [1]; original alkaline phosphatase 1:1, 18 hours room temperature): incorrectly predicted |
| BrCCc1ccccc1 [(2-Bromoethyl)benzene] | – | – | – | – | – | – | percent of phosphatase measured (first reading) [2]: 100.0%; percent of phosphatase measured (second reading) [2]: 100.0%; percent of phosphatase measured, average [2]: 100.0%; Corrosive (skin; rabbit, in vivo): No |
| CC(=O)OCc1ccccc1 [Benzyl Acetate] | 3.401 | 3.502 | 3.463 | – | – | – | – |
| O=C(OCc1ccccc1)c1ccccc1O [Benzyl Salicylate] | 3.502 | 3.445 | 3.464 | – | – | – | – |
| CC(C=O)Cc1ccc(C(C)C)cc1 (stereo not shown) [Cyclamen aldehyde] | 3.405 | 3.502 | 3.470 | – | – | – | OD190 (porcine skin; [7]): 0.694 and 0.716; OD290 (porcine skin; [7]): 0.290 and 0.477; OD300 (porcine skin; [7]): 0.274 and 0.447; OD190 (porcine skin; [8]): 0.222 and 0.214; OD290 (porcine skin; [8]): 0.195 and 0.153; OD300 (porcine skin; [8]): 0.142 and 0.119; OD290 (porcine skin; frozen porcine skin): 1.023 and 0.955; OD300 (porcine skin; frozen porcine skin): 0.901 and 0.852; percent of phosphatase measured (first reading) [2]: 100.0%; percent of phosphatase measured (second reading) [2]: 100.0%; percent of phosphatase measured, average [2]: 100.0%; Corrosive (skin; Table 2): No; in vivo GHS (skin; skin, Tables 1A-1C and 2): Cat. 2; in vivo GHS (skin; [6]): Cat. 2 (Category 2 (irritation; mean score of ≥2.3 and ≤4.0 for erythema/eschar or for oedema in at least 2 of 3 tested animals at 24, 48, and 72 hours or inflammation that persists to the end of 14 days)) |
| CCCCCCC=O [Heptanal] | – | – | – | 3.196 | 3.409 | 3.049 | percent of phosphatase measured (first reading) [2]: 100.0%; percent of phosphatase measured (second reading) [2]: 94.4%; percent of phosphatase measured, average [2]: 97.2%; Corrosive (skin; rabbit, in vivo): No; in vivo GHS (skin; rabbit, in vivo): Cat. 2 |
| CC(CC=O)CCCC(C)(C)O (stereo not shown) [Hydroxycitronellal] | – | – | – | 3.356 | 3.412 | 3.154 | – |
| CC(C)O [Isopropanol] | – | – | – | 3.423 | 3.484 | 3.305 | – |
| CCCCCCCCCCCCCC(=O)OC(C)C [Isopropyl Myristate] | – | – | – | 3.451 | 3.373 | 3.484 | – |
| OCCc1ccccc1 [Phenylethyl alcohol] | – | – | – | 3.469 | 3.502 | 3.403 | – |
| OCCOCCOCCO [Triethylene glycol] | – | – | – | – | – | – | percent of phosphatase measured (first reading) [2]: 29.5%; percent of phosphatase measured (second reading) [2]: 28.2%; percent of phosphatase measured, average [2]: 28.9%; Corrosive (skin; rabbit, in vivo): No |
| CC1=CCC(C(C)(C)O)CC1 (stereo not drawn) [alpha-Terpineol] | 3.502 | 3.502 | 3.502 | – | – | – | – |
| CCCSSCCC [di-n-Propyl disulfide] | 3.467 | 3.395 | 3.445 | – | – | – | percent of phosphatase measured (first reading) [2]: 68.1%; percent of phosphatase measured (second reading) [2]: 71.6%; percent of phosphatase measured, average [2]: 69.9%; Corrosive (skin; Table 2): No; in vivo GHS (skin; skin, Tables 1A-1C and 2): Cat. 2; in vivo GHS (skin; [6]): Cat. 2 (Category 2 (irritation; mean score of ≥2.3 and ≤4.0 for erythema/eschar or for oedema in at least 2 of 3 tested animals at 24, 48, and 72 hours or inflammation that persists to the end of 14 days)) |
| CCCCCCCN [n-Heptylamine] | – | – | – | 2.557 | 2.141 | 2.862 | in vivo GHS (skin; [6]): Cat. 1B/1C; OD405 readings (FIG. 6D) (alkaline phosphatase [1]): 3.244 and 3.057 and 3.152; prediction based on OD405 values (FIG. 6B) (alkaline phosphatase [1]): incorrectly predicted |
| C=C(C)[C@@H]1CC=C(CO)CC1 [p-Metha-1,8-dien-7-ol] | – | – | – | – | – | – | in vivo GHS (skin; [6]): Cat. 2 (Category 2 (irritation; mean score of ≥2.3 and ≤4.0 for erythema/eschar or for oedema in at least 2 of 3 tested animals at 24, 48, and 72 hours or inflammation that persists to the end of 14 days)) |
